Source: patent US20230407243A1, “GENETIC PLATFORM TO INVESTIGATE THE FUNCTIONS OF BACTERIAL DRUG EFFLUX PUMPS” (priority 2022, published 2023)

What was measured:
Type in all cases: cell-based, Escherichia coli
EKO-35-Pore = assay: MIC susceptibility profiling, porinated strain; settings: for Fold changes of MICs: EKO-35-Pore compared to EKO-35-Pore (reference); for Minimum inhibitory concentration (MIC), Pore EKO-35: Table 10, with pore; for Minimum inhibitory concentration (MIC), Pore EKO-35 / Minimum inhibitory concentration, EKO-35-Pore: technical duplicate; for Minimum inhibitory concentration, EKO-35-Pore: Table 14A, porinated
Outline: (§1)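 MIC values come from background-corrected OD600 readings (pre-incubation OD subtracted) after 18 h at 37 °C and 900 rpm in MHB II. Compounds were tested in duplicate as 2-fold dilutions. The inoculum came from 18 h LB cultures adjusted to OD600 ~1.0 and diluted 1/2000, and the pore-bearing strains were vancomycin-checked beforehand.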

ΔtolC-Pore = assay: microbe, parasite or virus in culture; settings: technical duplicate; for Minimum inhibitory concentration (MIC), Pore ΔtolC: Table 10, with pore; for Minimum inhibitory concentration, ΔtolC-Pore: Table 14A, porinated
Outline: as §1

wild-type (WT) K-12-Pore = assay: microbe, parasite or virus in culture; settings: technical duplicate; for Minimum inhibitory concentration (MIC), Pore K-12: Table 10, with pore; for Minimum inhibitory concentration, K-12 (WT)-Pore: Table 14A, porinated
Outline: as §1

EKO-35 araC::acrD Pore = assay: MIC susceptibility profiling, porinated efflux platform; settings: for Fold changes of MICs: EKO-35 araC::acrD Pore compared to EKO-35-Pore; for Minimum inhibitory concentration, EKO-35 araC::acrD Pore: Table 14A, porinated, technical duplicate
Outline: as §1

EKO-35 araC::acrB Pore = assay: as above; settings: for Fold changes of MICs: EKO-35 araC::acr-B Pore compared to EKO-35-Pore; for Minimum inhibitory concentration, EKO-35 araC::acrB Pore: Table 14A, porinated, technical duplicate
Outline: as §1

EKO-35 araC::acrEF Pore = assay: as above; settings: for Fold changes of MICs: EKO-35 araC::acrEF Pore compared to EKO-35-Pore; for Minimum inhibitory concentration, EKO-35 araC::acrEF Pore: Table 14A, porinated, technical duplicate
Outline: as §1

[1] = tested on: EKO-35 araC::acrBD408A Pore; assay: as above; settings: for Fold changes of MICs: EKO-35 araC::acrBD408A Pore compared to EKO-35-Pore; for Minimum inhibitory concentration: EKO-35 araC::acrBD408A Pore, technical duplicate
Outline: as §1

EKO-35 araC::emrAB Pore = assay: as above; settings: for Fold changes of MICs: EKO-35 araC::emrAB Pore compared to EKO-35-Pore; for Minimum inhibitory concentration: EKO-35 araC::emrAB Pore, technical duplicate
Outline: as §1

EKO-35 araC::mdtBC = assay: MIC susceptibility profiling, efflux platform; settings: for Fold change of MICs: EKO-35 araC::mdtBC compared to EKO-35; for Minimum Inhibitory Concentration, EKO-35 araC::mdtBC: Table 13B, non-porinated, technical duplicate
Outline: (§2)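 Overnight LB cultures resuspended in PBS to OD600 ~1.0, diluted 1/2000 into MHB II, and added to 2-fold serial compound dilutions in duplicate with DMSO controls. Incubated 18 h at 37° C. with 900 rpm shaking; OD600 read before and after, background subtracted, to derive MIC.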

EKO-35 araC::acrBD408A = assay: MIC susceptibility profiling, efflux platform; settings: for Fold change of MICs: EKO-35 araC::acrBD408A compared to EKO-35; for Minimum Inhibitory Concentration, EKO-35 araC::acrBD408A: Table 13B, non-porinated, technical duplicate
Outline: as §2

EKO-35 araC::mdtEF = assay: MIC susceptibility profiling, efflux platform; settings: for Fold change of MICs: EKO-35 araC::mdtEF compared to EKO-35; for Minimum Inhibitory Concentration, EKO-35 araC::mdtEF: Table 13A, non-porinated, technical duplicate
Outline: as §2

EKO-35 araC::macAB = assay: MIC susceptibility profiling, efflux platform; settings: for Fold change of MICs: EKO-35 araC::macAB compared to EKO-35; for Minimum Inhibitory Concentration, EKO-35 araC::macAB: Table 13B, non-porinated, technical duplicate
Outline: as §2

EKO-35 araC::acrD = assay: MIC susceptibility profiling, efflux platform; settings: for Fold change of MICs: EKO-35 araC::acrD compared to EKO-35; for Minimum Inhibitory Concentration, EKO-35 araC::acrD: Table 13A, non-porinated, technical duplicate
Outline: as §2

EKO-35 araC::acrEF = assay: MIC susceptibility profiling, efflux platform; settings: for Fold change of MICs: EKO-35 araC::acrEF compared to EKO-35; for Minimum Inhibitory Concentration, EKO-35 araC::acrEF: Table 13A, non-porinated, technical duplicate
Outline: as §2

EKO-35 araC::emrKY = assay: MIC susceptibility profiling, efflux platform; settings: for Fold change of MICs: EKO-35 araC::emrKY compared to EKO-35; for Minimum Inhibitory Concentration, EKO-35 araC::emrKY: Table 13B, non-porinated, technical duplicate
Outline: as §2

[2] = tested on: EKO-35 araC::mexCD (MexCD from P. aeruginosa); assay: MIC susceptibility profiling, efflux platform; settings: for Fold change of MICs: EKO-35 araC::mexCD compared to EKO-35; for Minimum Inhibitory Concentration, EKO-35 araC::mexCD: Table 13B, non-porinated, technical duplicate
Outline: as §2

EKO-35 araC::emrAB = assay: MIC susceptibility profiling, efflux platform; settings: for Fold change of MICs: EKO-35 araC::emrAB compared to EKO-35; for Minimum Inhibitory Concentration, EKO-35 araC::emrAB: Table 13B, non-porinated, technical duplicate
Outline: as §2

EKO-35 araC::acrB = assay: MIC susceptibility profiling, efflux platform; settings: for Minimum Inhibitory Concentration, EKO-35 araC::acrB: Table 13A, non-porinated, technical duplicate
Outline: as §2

Structure (SMILES) | Fold changes of MICs (EKO-35-Pore) [fold] | Minimum inhibitory concentration (MIC), Pore EKO-35 (EKO-35-Pore) [µg/mL] | Minimum inhibitory concentration, EKO-35-Pore (EKO-35-Pore) [µg/mL] | Minimum inhibitory concentration (MIC), Pore ΔtolC (ΔtolC-Pore) [µg/mL] | Minimum inhibitory concentration, ΔtolC-Pore (ΔtolC-Pore) [µg/mL] | Minimum inhibitory concentration (MIC), Pore K-12 (wild-type (WT) K-12-Pore) [µg/mL] | Minimum inhibitory concentration, K-12 (WT)-Pore (wild-type (WT) K-12-Pore) [µg/mL] | Fold changes of MICs (EKO-35 araC::acrD Pore) [fold] | Minimum inhibitory concentration, EKO-35 araC::acrD Pore (EKO-35 araC::acrD Pore) [µg/mL] | Fold changes of MICs (EKO-35 araC::acrB Pore) [fold] | Minimum inhibitory concentration, EKO-35 araC::acrB Pore (EKO-35 araC::acrB Pore) [µg/mL] | Fold changes of MICs (EKO-35 araC::acrEF Pore) [fold] | Minimum inhibitory concentration, EKO-35 araC::acrEF Pore (EKO-35 araC::acrEF Pore) [µg/mL] | Fold changes of MICs [1] [fold] | Minimum inhibitory concentration [1] [µg/mL] | Fold changes of MICs (EKO-35 araC::emrAB Pore) [fold] | Minimum inhibitory concentration (EKO-35 araC::emrAB Pore) [µg/mL] | Fold change of MICs (EKO-35 araC::mdtBC) [fold] | Minimum Inhibitory Concentration, EKO-35 araC::mdtBC (EKO-35 araC::mdtBC) [µg/mL] | Fold change of MICs (EKO-35 araC::acrBD408A) [fold] | also measured
CC(C)c1ccc(C=C(C#N)c2nc3ccccc3[nH]2)cc1 [compound 12] | 1 | 160 | 160 | 0.625 | 0.625 | 320 | 320 | 1 | 160 | 2 | 320 | 2 | 320 | 2 | 320 | 2 | 320 | 1 | 320 | 1 | Minimum Inhibitory Concentration, EKO-35 araC::acrBD408A (EKO-35 araC::acrBD408A): 320 µg/mL; Fold change of MICs (EKO-35 araC::mdtEF): 1 fold; Minimum Inhibitory Concentration, EKO-35 araC::mdtEF (EKO-35 araC::mdtEF): 320 µg/mL; Fold change of MICs (EKO-35 araC::macAB): 1 fold; Minimum Inhibitory Concentration, EKO-35 araC::macAB (EKO-35 araC::macAB): 320 µg/mL; Fold change of MICs (EKO-35 araC::acrD): 1 fold; Minimum Inhibitory Concentration, EKO-35 araC::acrD (EKO-35 araC::acrD): 320 µg/mL; Fold change of MICs (EKO-35 araC::acrEF): 1 fold; Minimum Inhibitory Concentration, EKO-35 araC::acrEF (EKO-35 araC::acrEF): 320 µg/mL; Fold change of MICs (EKO-35 araC::emrKY): 1 fold; Minimum Inhibitory Concentration, EKO-35 araC::emrKY (EKO-35 araC::emrKY): 320 µg/mL; Fold change of MICs [2]: 1 fold; Minimum Inhibitory Concentration, EKO-35 araC::mexCD [2]: 320 µg/mL; Fold change of MICs (EKO-35 araC::emrAB): 1 fold; Minimum Inhibitory Concentration, EKO-35 araC::emrAB (EKO-35 araC::emrAB): 320 µg/mL; Fold change of MICs (EKO-35 araC::acrB; EKO-35 araC::acrB compared to EKO-35): 1 fold; Minimum Inhibitory Concentration, EKO-35 araC::acrB (EKO-35 araC::acrB): 320 µg/mL
N#CC(C#N)=NNc1ccc(-n2ccc(C(F)(F)F)n2)cc1 [compound 8] | 1 | 80 | 80 | 1.25 | 1.25 | 160 | 160 | 1 | 40 | 2 | 160 | 1 | 40 | 1 | 80 | 1 | 40 | 1 | 320 | 1 | Minimum Inhibitory Concentration, EKO-35 araC::acrBD408A (EKO-35 araC::acrBD408A): 320 µg/mL; Fold change of MICs (EKO-35 araC::mdtEF): 1 fold; Minimum Inhibitory Concentration, EKO-35 araC::mdtEF (EKO-35 araC::mdtEF): 320 µg/mL; Fold change of MICs (EKO-35 araC::macAB): 1 fold; Minimum Inhibitory Concentration, EKO-35 araC::macAB (EKO-35 araC::macAB): 320 µg/mL; Fold change of MICs (EKO-35 araC::acrD): 1 fold; Minimum Inhibitory Concentration, EKO-35 araC::acrD (EKO-35 araC::acrD): 160 µg/mL; Fold change of MICs (EKO-35 araC::acrEF): 1 fold; Minimum Inhibitory Concentration, EKO-35 araC::acrEF (EKO-35 araC::acrEF): 320 µg/mL; Fold change of MICs (EKO-35 araC::emrKY): 1 fold; Minimum Inhibitory Concentration, EKO-35 araC::emrKY (EKO-35 araC::emrKY): 320 µg/mL; Fold change of MICs [2]: 1 fold; Minimum Inhibitory Concentration, EKO-35 araC::mexCD [2]: 320 µg/mL; Fold change of MICs (EKO-35 araC::emrAB): 1 fold; Minimum Inhibitory Concentration, EKO-35 araC::emrAB (EKO-35 araC::emrAB): 320 µg/mL; Minimum Inhibitory Concentration, EKO-35 araC::acrB (EKO-35 araC::acrB): 640 µg/mL
